{"source": "patent US8946270B2", "about": "“Amido-pyridyl ether compounds and compositions and their use against parasites” (Merial Limited, priority 2011, dated 2015)", "key": {"[1]": {"tested_on": "Rhipicephalus sanguineus (Brown Dog Tick)", "assay": "whole plant or invertebrate", "conditions": "for Contact SP Rhicicep PCT Mortality (%): 200 ppm; for mortality at 200 ppm: Rhipicephalus sanguineus, read-out: Contact SP Rhicicep PCT Mortality (%)", "text": "A solution of the test compound was used to coat the inner wall of glass vials and to treat two filter papers. Once dried, one filter paper was placed in the cap of the vial and the other in the bottom of the vial. Each treated vial was infested with 10 adult Rhipicephalus sanguineus (Brown Dog Tick). […]"}, "Haematobia irritans": {"tested_on": "Haematobia irritans", "assay": "whole plant or invertebrate", "conditions": "5 μg/cm^2", "procedure": "A solution of the test compound was used to treat a filter paper contained within a Petri dish and the filter paper was allowed to evaporate to dryness. A small piece of absorbent cotton moistened with 10% sucrose and ten adult flies (Haematobia irritans or Stomoxys calcitrans) were added to each dish. Dishes were capped and held at room temperature. Assessments were performed at 4 and 24 hours after infestation in comparison with untreated controls."}}, "note": "Where two headings read alike, the source gives them in different places."}
{"molecule": "COC(CNC(=O)c1ccc(COc2cccc(-c3cccc(F)c3)c2)cn1)OC", "note": "[Compound 167]", "values": [{"measurement": "Contact SP Rhicicep PCT Mortality (%)", "setting": "[1]; timepoint 4 hrs", "value": 100, "unit": "%"}, {"measurement": "Contact SP Rhicicep PCT Mortality (%)", "setting": "[1]; timepoint 24 hrs", "value": 100, "unit": "%"}]}
{"molecule": "CSCCNC(=O)c1ccc(COc2cccc(-c3cccc(F)c3)c2)cn1", "note": "[Compound 174]", "values": [{"measurement": "Contact SP Rhicicep PCT Mortality (%)", "setting": "[1]; timepoint 4 hrs", "value": 90, "unit": "%"}, {"measurement": "Contact SP Rhicicep PCT Mortality (%)", "setting": "[1]; timepoint 24 hrs", "value": 100, "unit": "%"}]}
{"molecule": "CCC(C)CNC(=O)c1ccc(COc2cccc(-c3cccc(F)c3)c2)cn1", "note": "(stereo not shown) [Compound 181]", "values": [{"measurement": "Contact SP Rhicicep PCT Mortality (%)", "setting": "[1]; timepoint 4 hrs", "value": 70, "unit": "%"}, {"measurement": "Contact SP Rhicicep PCT Mortality (%)", "setting": "[1]; timepoint 24 hrs", "value": 90, "unit": "%"}]}
{"molecule": "CCOc1cccc(OCc2ccc(C(=O)NCC(C)C)nc2)c1", "note": "[Compound 199]", "values": [{"measurement": "Contact SP Rhicicep PCT Mortality (%)", "setting": "[1]; timepoint 4 hrs", "value": 100, "unit": "%"}, {"measurement": "Contact SP Rhicicep PCT Mortality (%)", "setting": "[1]; timepoint 24 hrs", "value": 100, "unit": "%"}]}
{"molecule": "O=C(NCC1CC1)c1ccc(CCOc2cccc(C(F)(F)F)c2)cn1", "note": "[Compound 208]", "values": [{"measurement": "Contact SP Horn Fly PCT Mortality (%)", "setting": "Haematobia irritans; timepoint 4 hrs", "value": 100, "unit": "%"}, {"measurement": "Contact SP Horn Fly PCT Mortality (%)", "setting": "Haematobia irritans; timepoint 24 hrs", "value": 100, "unit": "%"}]}
{"molecule": "CC(C)CNC(=O)c1ccc(CCOc2cccc(C(F)(F)F)c2)cn1", "note": "[Compound 209]", "values": [{"measurement": "mortality at 200 ppm", "setting": "[1]; timepoint 4 hrs", "value": 90, "unit": "%"}, {"measurement": "mortality at 200 ppm", "setting": "[1]; timepoint 24 hrs", "value": 100, "unit": "%"}]}
{"molecule": "CC(C)(C)CNC(=O)c1ccc(COCc2ccc(Cl)cc2)cn1", "note": "[Compound 216]", "values": [{"measurement": "Contact SP Rhicicep PCT Mortality (%)", "setting": "[1]; timepoint 4 hrs", "value": 0, "unit": "%"}, {"measurement": "Contact SP Rhicicep PCT Mortality (%)", "setting": "[1]; timepoint 24 hrs", "value": 60, "unit": "%"}]}
{"molecule": "O=C(NCC1CCOCC1)c1ccc(CCOc2cccc(C(F)(F)F)c2)cn1", "note": "[Compound 220]", "values": [{"measurement": "mortality at 200 ppm", "setting": "[1]; timepoint 4 hrs", "value": 100, "unit": "%"}, {"measurement": "mortality at 200 ppm", "setting": "[1]; timepoint 24 hrs", "value": 100, "unit": "%"}]}
{"molecule": "CCC(C)CNC(=O)c1ccc(CCOc2cccc(C(F)(F)F)c2)cn1", "note": "(stereo not shown) [Compound 221]", "values": [{"measurement": "mortality at 200 ppm", "setting": "[1]; timepoint 4 hrs", "value": 90, "unit": "%"}, {"measurement": "mortality at 200 ppm", "setting": "[1]; timepoint 24 hrs", "value": 100, "unit": "%"}]}
{"molecule": "CC(C)CNC(=O)c1ccc(CCOc2ccc(F)c(OC(F)(F)F)c2)cn1", "note": "[Compound 222]", "values": [{"measurement": "Contact SP Rhicicep PCT Mortality (%)", "setting": "[1]; timepoint 4 hrs", "value": 90, "unit": "%"}, {"measurement": "Contact SP Rhicicep PCT Mortality (%)", "setting": "[1]; timepoint 24 hrs", "value": 100, "unit": "%"}]}
{"molecule": "CC(C)CNC(=O)c1ccc(CCOc2cc(Cl)cc(Cl)c2)cn1", "note": "[Compound 225]", "values": [{"measurement": "mortality at 200 ppm", "setting": "[1]; timepoint 4 hrs", "value": 90, "unit": "%"}, {"measurement": "mortality at 200 ppm", "setting": "[1]; timepoint 24 hrs", "value": 100, "unit": "%"}]}
{"molecule": "CC(C)CNC(=O)c1ccc(COCc2ccc(Cl)c(OC(F)(F)F)c2)cn1", "note": "[Compound 227]", "values": [{"measurement": "Contact SP Rhicicep PCT Mortality (%)", "setting": "[1]; timepoint 4 hrs", "value": 100, "unit": "%"}, {"measurement": "Contact SP Rhicicep PCT Mortality (%)", "setting": "[1]; timepoint 24 hrs", "value": 100, "unit": "%"}]}
{"molecule": "CC(C)CNC(=O)c1ccc(COCc2ccc(F)c(OC(F)(F)F)c2)cn1", "note": "[Compound 228]", "values": [{"measurement": "mortality at 200 ppm", "setting": "[1]; timepoint 4 hrs", "value": 90, "unit": "%"}, {"measurement": "mortality at 200 ppm", "setting": "[1]; timepoint 24 hrs", "value": 90, "unit": "%"}]}
{"molecule": "CC(C)CNC(=O)c1ccc(COCc2cc(F)cc(C(F)(F)F)c2)cn1", "note": "[Compound 229]", "values": [{"measurement": "mortality at 200 ppm", "setting": "[1]; timepoint 4 hrs", "value": 80, "unit": "%"}, {"measurement": "mortality at 200 ppm", "setting": "[1]; timepoint 24 hrs", "value": 80, "unit": "%"}]}
{"molecule": "CC(C)CNC(=O)c1ccc(COCc2ccc(C(F)(F)F)cc2F)cn1", "note": "[Compound 232]", "values": [{"measurement": "mortality at 200 ppm", "setting": "[1]; timepoint 4 hrs", "value": 100, "unit": "%"}, {"measurement": "mortality at 200 ppm", "setting": "[1]; timepoint 24 hrs", "value": 100, "unit": "%"}]}
{"molecule": "CC(C)CNC(=O)c1ccc(COCc2ccc(Cl)cc2)cn1", "note": "[Compound 234]", "values": [{"measurement": "mortality at 200 ppm", "setting": "[1]; timepoint 4 hrs", "value": 90, "unit": "%"}, {"measurement": "mortality at 200 ppm", "setting": "[1]; timepoint 24 hrs", "value": 90, "unit": "%"}]}
{"molecule": "CC(C)CNC(=O)c1ccc(CCOc2ccc(Br)c(OC(F)(F)F)c2)cn1", "note": "[Compound 237]", "values": [{"measurement": "mortality at 200 ppm", "setting": "[1]; timepoint 4 hrs", "value": 90, "unit": "%"}, {"measurement": "mortality at 200 ppm", "setting": "[1]; timepoint 24 hrs", "value": 100, "unit": "%"}]}
{"molecule": "CC(C)CCNC(=O)c1ccc(CCOc2cccc(OC(F)(F)F)c2)cn1", "note": "[Compound 240]", "values": [{"measurement": "mortality at 200 ppm", "setting": "[1]; timepoint 4 hrs", "value": 90, "unit": "%"}, {"measurement": "mortality at 200 ppm", "setting": "[1]; timepoint 24 hrs", "value": 90, "unit": "%"}]}
{"molecule": "CCC(C)NC(=O)c1ccc(CCOc2cccc(OC(F)(F)F)c2)cn1", "note": "(stereo not shown) [Compound 241]", "values": [{"measurement": "mortality at 200 ppm", "setting": "[1]; timepoint 4 hrs", "value": 50, "unit": "%"}, {"measurement": "mortality at 200 ppm", "setting": "[1]; timepoint 24 hrs", "value": 90, "unit": "%"}]}
{"molecule": "CCC(C)CNC(=O)c1ccc(CCOc2cccc(OC(F)(F)F)c2)cn1", "note": "(stereo not shown) [Compound 242]", "values": [{"measurement": "mortality at 200 ppm", "setting": "[1]; timepoint 4 hrs", "value": 70, "unit": "%"}, {"measurement": "mortality at 200 ppm", "setting": "[1]; timepoint 24 hrs", "value": 90, "unit": "%"}]}
{"molecule": "O=C(NCC1CCOCC1)c1ccc(COc2ccc(C(F)(F)F)cc2Br)cn1", "note": "[Compound 256]", "values": [{"measurement": "Contact SP Rhicicep PCT Mortality (%)", "setting": "[1]; timepoint 4 hrs", "value": 90, "unit": "%"}, {"measurement": "Contact SP Rhicicep PCT Mortality (%)", "setting": "[1]; timepoint 24 hrs", "value": 100, "unit": "%"}]}
{"molecule": "O=C(NCC1CCOCC1)c1ccc(COc2ccc(C(F)(F)F)cc2F)cn1", "note": "[Compound 257]", "values": [{"measurement": "Contact SP Rhicicep PCT Mortality (%)", "setting": "[1]; timepoint 4 hrs", "value": 80, "unit": "%"}, {"measurement": "Contact SP Rhicicep PCT Mortality (%)", "setting": "[1]; timepoint 24 hrs", "value": 90, "unit": "%"}]}
{"molecule": "O=C(NCC1CCOCC1)c1ccc(COCc2ccc(Cl)cc2)cn1", "note": "[Compound 259]", "values": [{"measurement": "mortality at 200 ppm", "setting": "[1]; timepoint 4 hrs", "value": 80, "unit": "%"}, {"measurement": "mortality at 200 ppm", "setting": "[1]; timepoint 24 hrs", "value": 90, "unit": "%"}]}
{"molecule": "O=C(NCC1CCOCC1)c1ccc(COCc2ccccc2Cl)cn1", "note": "[Compound 260]", "values": [{"measurement": "Contact SP Rhicicep PCT Mortality (%)", "setting": "[1]; timepoint 4 hrs", "value": 90, "unit": "%"}, {"measurement": "Contact SP Rhicicep PCT Mortality (%)", "setting": "[1]; timepoint 24 hrs", "value": 100, "unit": "%"}]}
{"molecule": "O=C(NCC1CCOCC1)c1ccc(COCc2ccccc2C(F)(F)F)cn1", "note": "[Compound 266]", "values": [{"measurement": "mortality at 200 ppm", "setting": "[1]; timepoint 4 hrs", "value": 70, "unit": "%"}, {"measurement": "mortality at 200 ppm", "setting": "[1]; timepoint 24 hrs", "value": 90, "unit": "%"}]}
{"molecule": "CC(C)CNC(=O)c1ccc(CCOc2cc(F)cc(C(F)(F)F)c2)cn1", "note": "[Compound 278]", "values": [{"measurement": "Contact SP Rhicicep PCT Mortality (%)", "setting": "[1]; timepoint 4 hrs", "value": 70, "unit": "%"}, {"measurement": "Contact SP Rhicicep PCT Mortality (%)", "setting": "[1]; timepoint 24 hrs", "value": 100, "unit": "%"}]}
{"molecule": "CC(C)CNC(=O)c1ccc(COCc2ccc(C(F)(F)F)c(F)c2)cn1", "note": "[Compound 283]", "values": [{"measurement": "Contact SP Rhicicep PCT Mortality (%)", "setting": "[1]; timepoint 4 hrs", "value": 100, "unit": "%"}, {"measurement": "Contact SP Rhicicep PCT Mortality (%)", "setting": "[1]; timepoint 24 hrs", "value": 100, "unit": "%"}]}
{"molecule": "CC(C)CNC(=O)c1ccc(COCc2ccc(C(F)(F)F)c(Cl)c2)cn1", "note": "[Compound 284]", "values": [{"measurement": "Contact SP Rhicicep PCT Mortality (%)", "setting": "[1]; timepoint 4 hrs", "value": 90, "unit": "%"}, {"measurement": "Contact SP Rhicicep PCT Mortality (%)", "setting": "[1]; timepoint 24 hrs", "value": 100, "unit": "%"}]}
{"molecule": "CC(C)CNC(=O)c1ccc(COCc2cccc(F)c2F)cn1", "note": "[Compound 290]", "values": [{"measurement": "Contact SP Rhicicep PCT Mortality (%)", "setting": "[1]; timepoint 4 hrs", "value": 80, "unit": "%"}, {"measurement": "Contact SP Rhicicep PCT Mortality (%)", "setting": "[1]; timepoint 24 hrs", "value": 80, "unit": "%"}]}
